Reference: patent publication US12193437B2, “Pesticidal compositions” (Monsanto Technology LLC, priority 2016, dated 2025)

Assay: Solubility of dicamba and its sodium salt

Row | Compound | amount dissolved in mixtures of a water-miscible glycol and water (glycol 30% or higher by weight of the mixture) | aqueous solubility (fully neutralized (molar equivalence of 1) sodium salt, water)
1 | COc1c(Cl)ccc(Cl)c1C(=O)O [dicamba, 3,6-dichloro-2-methoxybenzoic acid] | about 45 % by weight of the solution | 
2 | COc1c(Cl)ccc(Cl)c1C(=O)[O-].[Na+] [sodium salt of dicamba, sodium dicamba] |  | about 35 wt. % acid equivalent
